Molecular target: T1, Programmed cell death protein 4 (Homo sapiens, UniProt Q53EL6)
T1 sequence (Q53EL6 whole entry): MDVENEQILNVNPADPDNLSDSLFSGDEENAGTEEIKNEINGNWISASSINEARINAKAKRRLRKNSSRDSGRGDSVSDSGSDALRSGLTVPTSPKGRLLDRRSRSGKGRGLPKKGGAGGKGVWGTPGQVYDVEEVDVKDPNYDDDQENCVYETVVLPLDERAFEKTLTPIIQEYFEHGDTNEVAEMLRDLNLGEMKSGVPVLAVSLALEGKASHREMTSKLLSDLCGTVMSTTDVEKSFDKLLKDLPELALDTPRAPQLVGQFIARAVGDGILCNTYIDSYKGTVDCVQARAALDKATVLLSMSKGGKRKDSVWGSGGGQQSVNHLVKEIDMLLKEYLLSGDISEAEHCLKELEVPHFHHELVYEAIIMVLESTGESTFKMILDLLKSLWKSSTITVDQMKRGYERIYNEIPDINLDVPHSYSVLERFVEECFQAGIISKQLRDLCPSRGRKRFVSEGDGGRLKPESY
Test: Inhibition of PDCD4 in human HeLa cells tranfected with pCI-neo-luciferase-PDCD4 3'-UTR plasmid assessed as increase in luciferase activity by luciferase reporter assay

Compound: CCOC(=O)c1nc(-c2ccc(OC)cc2)oc1C
- EC50: 2250 nM

— BindingDB's records for PubMed 35695407 (Chinese Academy of Sciences, 2022)
